According to patent US20240336657A1, “G-ALPHA-S PEPTIDE INHIBITORS AND USES THEREOF” (The Regents of the University of California, priority 2021, published 2024):
Positions of bridges follow the written chain, without caps; N, C: chain ends. Non-standard residues stand in square brackets, D forms with d. Residues, ends and D or L forms follow the SMILES beside them.

Columns and labels:
GppNHp-bound Gαs = GppNHp-bound Gαs (Homo sapiens, UniProt P63092); test: Adenylyl cyclase activity assay (Gαs-mediated adenylyl cyclase activation, cAMP production, LANCE Ultra cAMP kit); type: biochemical; set-up: made in house; host or cells: Escherichia coli BL21(DE3); settings: 6.25 μM of GN13; in the presence of Gβ1/γ2
Text: Active state binding cyclic peptide GN13 blocks Gαs-mediated adenylyl cyclase activation. In order to determine whether (Gαs/GppNHp) specific binders inhibit Gαs activity, we assayed the ability of Gαs to activate its downstream effector adenylyl cyclase (AC) (FIG. 17A). We refer to resynthesized active state binding cyclic peptides with a “GN” (Gαs/GppNHp) preceding their ranking number. […] We then evaluated the inhibitory effect of the top hits on Gαs-mediated adenylyl cyclase activation by measuring production of cAMP in a reconstituted Gαs activity assay (FIG. 17A). […] Cyclic peptides dose dependent inhibition (FIG. 17C). […] WT Gαs at a concentration of 8.5 mg/mL (about 190 μM) in 20 mM HEPES 8.0, 150 mM NaCl, 5 mM MgCl2, 1 mM EDTA-Na 8.0 was diluted to 0.5 μM in dilution buffer (1× PBS 7.4, 0.1% BSA, 1 mM EDTA-Na 8.0, 2 mM DTT, 0.1 mM MgCl2) plus 1 mM GppNHp. […] Reaction mixture was further incubated at room temperature for 2 hours and placed on ice for 5 minutes. cAMP production was initiated by addition of […] of ATP stock (1 mM ATP, 1× PBS 7.4, 0.1% BSA). The reaction was carried out at 30° C. for 10 minutes in a PCR machine and stopped by heating at 95° C. for 3 minutes. The cAMP concentrations were measured by the LANCE Ultra cAMP kit. […] The cAMP concentrations were measured by the LANCE Ultra cAMP kit. cAMP concentrations measurement by the LANCE Ultra cAMP kit. […]

Gαs S275L = Gαs S275L (Homo sapiens, UniProt P63092, S275L); test: Adenylyl cyclase activity assay in membranes of GNAS KO HEK293 cells transfected with Gαs S275L; type: biochemical; set-up: expressed in transfected cells; host or cells: GNAS KO HEK293 cells (membranes); settings: Gαs S275L reintroduced
Text: To further assess the cellular specificity of GN13, we designed a GN13-resistant Gαs mutant based on structural analysis. […] We reasoned that mutating this serine residue to a bulky residue should create a drug-resistant Gαs mutant that blocks the GN13-Gαs interaction but would have little effect on adenylyl cyclase activation. […] By contrast, when the drug resistant mutant Gαs S275L was reintroduced into GNAS KO cells, the inhibitory effect of GN13 was abolished (FIG. 3I), providing further evidence that the observed pharmacological activity is due to GN13 binding to the switch II/α3 pocket in Gαs.
GN13 inhibition of Gαs proteins in HEK293 cell membranes (FIG. 17F and FIG. 18F).
a. Cell membrane preparation: HEK293cells, GNAS KO HEK293 cells were plated two day before transfection at a density of 1M cells per 10 cm plate. […] The protein concentrations were measured using BCA, and were normalized to 750 μg/mL. […] The cAMP concentrations were measured by the LANCE Ultra cAMP kit. […]
A cAMP standard curve was generated in the same plate using the 50 μM cAMP standard in the kit. […] 10 μL of each diluted sample was mixed with 5 μL of 4× Eu-cAMP tracer and 5 μL of 4× ULight-anti-cAMP in a white, opaque Optiplate-384 microplate, incubated for 1 hour at room temperature, and the time-resolved fluorescence resonance energy transfer (TR-FRET) signals were read on a Spark 20M plate reader. […]

Chain of Gαs S275L (P63092 whole entry S275L): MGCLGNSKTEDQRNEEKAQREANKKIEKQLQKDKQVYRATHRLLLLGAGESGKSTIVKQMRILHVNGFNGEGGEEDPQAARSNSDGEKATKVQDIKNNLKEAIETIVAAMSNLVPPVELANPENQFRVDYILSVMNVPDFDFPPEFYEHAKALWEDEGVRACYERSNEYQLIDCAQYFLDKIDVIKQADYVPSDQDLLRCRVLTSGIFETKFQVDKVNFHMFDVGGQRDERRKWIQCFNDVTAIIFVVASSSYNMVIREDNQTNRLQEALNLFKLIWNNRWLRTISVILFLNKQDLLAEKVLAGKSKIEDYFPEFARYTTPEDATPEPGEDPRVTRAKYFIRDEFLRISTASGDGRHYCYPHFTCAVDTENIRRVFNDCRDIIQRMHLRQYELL
Chain of GppNHp-bound Gαs (P63092 1-380 isoform P63092-2): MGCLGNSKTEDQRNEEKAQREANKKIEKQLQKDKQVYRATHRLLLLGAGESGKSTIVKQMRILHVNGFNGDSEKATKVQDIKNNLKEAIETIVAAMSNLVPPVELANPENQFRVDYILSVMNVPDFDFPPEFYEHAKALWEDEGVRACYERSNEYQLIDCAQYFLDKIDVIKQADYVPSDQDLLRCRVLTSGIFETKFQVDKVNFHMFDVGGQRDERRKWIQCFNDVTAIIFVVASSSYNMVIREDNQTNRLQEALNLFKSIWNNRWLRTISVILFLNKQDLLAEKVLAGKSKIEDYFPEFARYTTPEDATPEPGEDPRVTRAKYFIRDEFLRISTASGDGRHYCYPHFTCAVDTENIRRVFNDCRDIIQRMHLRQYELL

## CC[C@H](C)[C@@H]1NC(=O)[C@H](C)NC(=O)[C@H](Cc2ccc(O)cc2)NC(=O)[C@H](C(C)C)NC(=O)[C@H](CO)NC(=O)[C@H](CCC(=O)O)NC(=O)[C@H](Cc2ccccc2)NC(=O)[C@@H](Cc2ccc(O)cc2)NC(=O)CSC[C@@H](C(=O)NCC(N)=O)NC(=O)[C@H](CC(C)C)NC(=O)[C@H]([C@@H](C)O)NC(=O)CNC(=O)[C@H](Cc2c[nH]c3ccccc23)NC1=O [GN13] ({CH2CO}-[dY]FESVYAIWGTLCG-NH2; thioether N-13)
GppNHp-bound Gαs
  inhibition of adenylyl cyclase activation by Gαs WT: inhibits
Gαs S275L
  inhibition of isoproterenol-mediated cAMP production in cell membranes: abolished
